The record followed here is publication PMC10531311, “Anti-Inflammatory Activities of 8-Benzylaminoxanthines Showing High Adenosine A2A and Dual A1/A2A Receptor Affinity” (International Journal of Molecular Sciences, 2023).

The target in one data set is T1, CYP2D6 (Homo sapiens, UniProt P10635).
T1 construct: purchased Promega (Madison, WI, USA)
The data set can be described thus: Drug-drug interactions, CYP2D6 P450-Glo. To be noted: 10 µM. The format is in vitro ADME. On the procedure: To predict potential drug-drug interactions (DDI) effects on three of the most relevant cytochrome P450 (CYP), isoforms CYP3A4, CYP2D6 and CYP2C9 were investigated at a concentration of 10 µM. The results were compared with the effects of 1 µM of the selective inhibitors ketoconazole (CYP3A4), quinidine (CYP2D6) and sulfaphenazole (CYP2C9).
The influence of the tested compounds on recombinant human cytochromes was determined with the use of CYP3A4, CYP2D6 and CYP2C9 P450-Glo™ kits and protocols provided by Promega (Madison, WI, USA). Compounds were tested at a concentration of 10 μM. Reference inhibitors: Ketoconazole (CYP3A4), quinidine (CYP2D6) and sulfaphenazole (CYP2C9) were tested at 1 μM. The luminescent signals were measured using a microplate reader EnSpire PerkinElmer (Waltham, MA, USA).

For the next data set, the system named is BV-2 cells. The data set can be described thus: Phagocytic activity, IncuCyte pHrodo. The format is cell-based. To be noted: 1 µM; BV-2, LPS 1 μg/mL; apoptotic Jurkat target cells. The procedure: For the evaluation of phagocytic activity, compound 22 (MZ1490) was chosen as the most promising one on the basis of the results from the Griess assay. This compound was tested at a concentration of 1 µM, and phagocytosis was monitored in real time using an IncuCyte® pHrodo® Red Cell Labeling Kit (catalog no. 4766, Sartorius, Göttingen, Germany). […] It is interesting to note that the phagocytic activity exerted by untreated BV-2 cells is also related to the serum concentration. A healthy CNS maintains the BBB, and microglia are often highly ramified surveillance microglia without enhanced phagocytosis. […]
Phagocytosis was monitored in real time using the IncuCyte® pHrodo® Red Cell Labeling Kit. The principle of this test is based on the ability of the pHrodo to emit fluorescence in an acidic environment, which is precisely the environment inside the phagosome. If effector cells engulf labeled target cells and these enter the acidic phagosome, a substantial increase in fluorescence is observed. In this way, we can quantify phagocytosis. […] After this time, the labeled Jurkat apoptotic cells were added to the BV-2 cells at a density of 100,000 cells/well and the cells were monitored in an IncuCyte Live-Cell Analysis System. Repeat scanning to record phase and fluorescence images was carried out every 1 h, for up to 22 h. […]

Molecules are shown by their SMILES. “Also recorded” adds a separate entry of the source.

T1 sequence (P10635 whole entry): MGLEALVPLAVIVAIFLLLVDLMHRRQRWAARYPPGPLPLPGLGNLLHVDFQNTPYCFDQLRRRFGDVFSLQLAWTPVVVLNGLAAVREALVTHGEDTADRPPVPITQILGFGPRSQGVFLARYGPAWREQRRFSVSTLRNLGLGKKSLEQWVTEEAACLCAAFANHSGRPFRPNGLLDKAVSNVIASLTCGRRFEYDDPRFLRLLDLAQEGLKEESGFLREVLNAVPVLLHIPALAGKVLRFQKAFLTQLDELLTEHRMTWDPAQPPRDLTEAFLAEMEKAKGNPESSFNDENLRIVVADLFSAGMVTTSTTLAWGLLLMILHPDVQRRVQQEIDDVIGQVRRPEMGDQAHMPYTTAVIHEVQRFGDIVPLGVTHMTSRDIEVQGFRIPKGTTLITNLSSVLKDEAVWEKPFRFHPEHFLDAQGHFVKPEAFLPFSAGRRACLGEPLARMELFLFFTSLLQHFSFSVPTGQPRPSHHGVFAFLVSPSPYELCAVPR

For the molecule `C#CCn1c(=O)c2c(nc(NCc3cccc(Br)c3)n2C)n(C)c1=O` [compound 24, 8-((3-Bromobenzyl)amino)-3,7-dimethyl-1-(prop-2-yn-1-yl)-3,7-dihydro-1H-purine-2,6-dione], at CYP2D6, the “effect on CYP2D6 activity (in words)” value is on record as “slight, statistically significant inhibition”.

For `C#CCn1c(=O)c2c(nc(NCc3c(F)cccc3Cl)n2C)n(C)c1=O` [compound 22, 8-((2-Chloro-6-fluorobenzyl)amino)-3,7-dimethyl-1-(prop-2-yn-1-yl)-3,7-dihydro-1H-purine-2,6-dione], the “effect on phagocytosis (in words)” value in the data set with BV-2 cells is reported as “protects microglia from LPS-induced inflammation and, therefore, also from phagocytosis; also recorded: protected from phagocytosis”.
